{"source": "patent US20200239530A1", "about": "“COMPOUNDS AND METHODS OF MODULATING PROTEIN DEGRADATION” (Vividion Therapeutics, Inc., priority 2017, published 2020)", "key": {"[1]": {"target": "T1, CDK17 Cyclin-dependent kinase 17 (Homo sapiens, UniProt Q00537)", "T1 construct": "200 μL of lysate containing 5 mg/ml proteome was treated with 2 μL of 100× compound stock; endogenous in cells", "T1 sequence (Q00537 whole entry)": "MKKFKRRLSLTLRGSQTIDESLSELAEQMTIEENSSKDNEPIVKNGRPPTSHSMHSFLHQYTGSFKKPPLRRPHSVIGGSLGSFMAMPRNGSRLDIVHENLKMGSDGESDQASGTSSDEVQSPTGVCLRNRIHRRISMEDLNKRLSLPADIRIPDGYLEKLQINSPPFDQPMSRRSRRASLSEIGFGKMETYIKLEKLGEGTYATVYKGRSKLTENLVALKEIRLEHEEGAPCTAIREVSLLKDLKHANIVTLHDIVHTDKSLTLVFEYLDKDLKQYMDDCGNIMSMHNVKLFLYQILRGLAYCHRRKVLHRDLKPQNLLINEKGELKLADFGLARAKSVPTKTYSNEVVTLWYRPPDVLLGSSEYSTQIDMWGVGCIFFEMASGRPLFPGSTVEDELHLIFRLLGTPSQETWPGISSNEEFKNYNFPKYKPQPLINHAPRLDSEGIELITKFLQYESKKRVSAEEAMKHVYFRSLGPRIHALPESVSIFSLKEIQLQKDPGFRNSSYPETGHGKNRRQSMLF", "experiment": "Cysteine liganding, probe competition", "format": "binding", "settings": "for Liganded: CDK17 Res# 233, uniprot Q00537", "method_in_brief": "(§1)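 Lysates from probe-sonicated cells in PBS (5 mg/ml proteome) were exposed to compound for 1 hr at 25° C, then labelled with desthiobiotin iodoacetamide probe (10 mM stock) for 1 hr at 25° C. Probe-tagged peptides were streptavidin-enriched after trypsin digestion.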"}, "[2]": {"target": "T2, HERC4 Probable E3 ubiquitin-protein ligase HERC4 (Homo sapiens, UniProt Q5GLZ8)", "T2 construct": "Cells were resuspended in cold PBS on ice and sonicated with a probe sonicator to achieve lysis; endogenous in cells", "T2 sequence (Q5GLZ8 1-1057)": "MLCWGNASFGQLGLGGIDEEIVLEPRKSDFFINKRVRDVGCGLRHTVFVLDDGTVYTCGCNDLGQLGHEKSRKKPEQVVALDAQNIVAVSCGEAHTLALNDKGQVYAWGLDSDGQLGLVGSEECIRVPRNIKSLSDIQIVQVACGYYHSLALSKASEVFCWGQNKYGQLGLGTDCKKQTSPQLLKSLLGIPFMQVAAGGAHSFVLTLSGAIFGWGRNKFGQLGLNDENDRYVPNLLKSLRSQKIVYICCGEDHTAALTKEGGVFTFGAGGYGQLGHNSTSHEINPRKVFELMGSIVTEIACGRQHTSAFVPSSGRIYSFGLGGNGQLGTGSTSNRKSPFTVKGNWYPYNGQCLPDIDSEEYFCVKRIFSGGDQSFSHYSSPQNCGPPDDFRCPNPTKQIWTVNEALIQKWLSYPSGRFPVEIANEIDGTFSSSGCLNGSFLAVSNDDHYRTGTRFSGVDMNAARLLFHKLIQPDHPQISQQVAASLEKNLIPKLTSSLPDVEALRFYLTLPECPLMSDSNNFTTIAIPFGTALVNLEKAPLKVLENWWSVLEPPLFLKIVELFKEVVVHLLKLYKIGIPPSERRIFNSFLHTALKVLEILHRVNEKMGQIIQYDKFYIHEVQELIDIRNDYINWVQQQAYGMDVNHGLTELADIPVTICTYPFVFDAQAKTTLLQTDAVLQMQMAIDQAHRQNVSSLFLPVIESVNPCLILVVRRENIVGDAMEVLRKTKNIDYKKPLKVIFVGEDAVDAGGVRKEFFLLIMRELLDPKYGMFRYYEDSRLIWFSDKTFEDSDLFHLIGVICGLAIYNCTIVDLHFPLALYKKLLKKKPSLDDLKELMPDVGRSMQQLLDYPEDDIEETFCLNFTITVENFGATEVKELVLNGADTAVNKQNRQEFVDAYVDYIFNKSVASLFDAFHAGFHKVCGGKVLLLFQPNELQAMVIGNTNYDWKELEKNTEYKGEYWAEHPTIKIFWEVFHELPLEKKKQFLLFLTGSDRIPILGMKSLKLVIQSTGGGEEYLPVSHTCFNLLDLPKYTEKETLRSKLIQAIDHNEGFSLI", "experiment": "Cysteine liganding, probe competition", "format": "binding", "method_in_brief": "as §1"}}}
{"smiles": "COc1ccc2c(c1)CCCN2C(=O)CCl", "note": "[KB02]", "values": [{"measurement": "Liganded", "setting": "[1]", "value": "YES"}, {"measurement": "Liganded", "setting": "[2]; HERC4 Res# 60, uniprot Q5GLZ8", "value": "YES"}]}
{"smiles": "O=C(CCl)Nc1cc(C(F)(F)F)cc(C(F)(F)F)c1", "note": "[KBO3]", "values": [{"measurement": "Liganded", "setting": "[1]", "value": "YES"}, {"measurement": "100 Max", "setting": "[1]; uniprot Q00537", "value": 50.67}, {"measurement": "100 ave", "setting": "[1]; uniprot Q00537", "value": 28.2075}, {"measurement": "500 ave", "setting": "[1]; uniprot Q00537", "value": 79.225}, {"measurement": "500 Max", "setting": "[1]; uniprot Q00537, in % (unit assumed)", "value": 80.44}, {"measurement": "100 Max", "setting": "[2]; uniprot Q5GLZ8", "value": 42.0}, {"measurement": "100 ave", "setting": "[2]; uniprot Q5GLZ8", "value": 15.4}, {"measurement": "500 ave", "setting": "[2]; uniprot Q5GLZ8", "value": 58.8}, {"measurement": "500 Max", "setting": "[2]; uniprot Q5GLZ8, unit assumed", "value": 62.3, "unit": "%"}]}
